# From patent US7172772B2, “Herbal composition for gastrointestinal disorders” (Council of Scientific & Industrial Research, priority 2003, dated 2007)
# Where “and” joins values, the source holds several entries; their conditions need not be identical. Equal values may be shown once. Where a name gives a salt, the structure may show the parent alone. Marks after values point to notes of the source that are not given here.
# Assays:
# [1] = system: castor oil-stimulated gastrointestinal transit in rats; test: Small intestinal transit, charcoal meal (Table 3); type: in vivo; conditions: 0.1 mg kg^−1 IP
# Procedure: Animals were divided into four groups of six rats each and each animal was given orally 1 ml of charcoal meal (5% activated charcoal suspended in 1% CMC) 60 min after an oral dose of drugs or vehicle. Group I was administered with 1% CMC (10 ml kg^−1) and animals in the other groups received various formulations. Another group received atropine sulfate (0.1 mg kg^−1, IP) as standard drug. After 30 min animals were killed by cervical dislocation and the intestine was removed without stretching and placed lengthwise on moist filter paper. The length of the intestine (pyloric sphincter to caecum) and the distance travelled by the charcoal as a percentage of that length were evaluated for each animal, and group means were compared and expressed as percentage inhibition (Lutterodt, J. Ethnopharmacol. 25, 1989, 235–247). […] Therefore the dose dependent effect of the formulation was similar to the synthetic drug atropine. But long use of atropine completely blocks the secretions it is an adverse effect.
# [2] = system: human carcinoma cells of the naso-pharynx; conditions: cell culture; cited from earlier work
# [3] = system: castor oil induced diarrhea in rats; test: Castor oil induced diarrhea / defecation, total faecal matter over 4 h (Table 1); type: in vivo; conditions: 5.0 mg kg^−1 p.o.
# Procedure: Groups of six mice each were placed individually in separate cages with filter papers at the bottom. Different doses of the extracts were administered orally to different groups. The non-specific antidiarrhoeal reference drug diphenoxylate HCl (5.0 mg kg^−1, p.o.) and 1% CMC ([…], p.o.) were administered to two groups and later served as controls (Melo et al, J. Pharm. Pharmacol. 40 (1988), […]). The total number of the faecal matter in each group was assessed every hour for the next 4 h. Percent reduction in the total number of faeces in the treated groups was obtained by comparison with control animals.
# The method of Awouters et al. (J. Pharm. Pharmacol, 30, 1978, 41–45) as modified by Nwodo and Alumanah (J. Ethnopharmacol, 31, 1991, 395–398) was used. Briefly, rats fasted for 24 h were randomly allocated to five groups of six animals each. One group received 1% CMC (10 mL kg^−1, p.o.), other groups received orally the different dosage of drug extract. Another group given diphenoxylate HCl (5.0 mg kg^−1, p.o.) as suspension. After 60 min each animal was given with 2 ml of castor oil by orogastric cannula, and placed in a separate cage and observed for 4 h defecation. Transparent plastic dishes were placed beneath each cage and the characteristic diarrhoeal droppings were noted. The total number of the faecal matter in each group was assessed every hour for the next 4 h. […]
# [4] = system: indomethacin induced acute gastric ulcers in rats; test: Indomethacin induced acute gastric ulcers (Table 4); type: in vivo; conditions: 50 mg/kg
# Procedure: To assess the efficacy of different formulations against the indomethacin induced gastric ulcer different doses (25–100 mg kg^−1, p.o.) of formulations were administered to groups of 10 mice for each dose, while one group of the same number of mice served as control and the
# The results of Table 4 represents that there is a significant and dose dependent anti ulcer activity and percentage ratio ranges of protection from 27.03 to 75.38.
# [5] = system: cysteamine induced duodenal ulcers in rats; test: Cysteamine induced duodenal ulcers (Table 5); type: in vivo; conditions: 50 mg/kg
# Text: The efficacy is compared with the known standard synthetic drug Ranitidine for treatment of. […] Where as the formulation F5 contains […]. indica, Cinamommum sp. and Buchanania lanzan.
smiles,measurement,setting,value
"CN1[C@@H]2CC[C@H]1CC(OC(=O)C(CO)c1ccccc1)C2.CN1[C@@H]2CC[C@H]1CC(OC(=O)C(CO)c1ccccc1)C2.O=S(=O)(O)O (some centres unmarked) [Atropine sulphate, atropine sulfate]",Mean distance travelled by charcoal,[1],26.5 ± 2.6^b cm
same,Reduction (%),[1],68.33%
COc1cc2c3c(O)c1OCc1ccc(cc1)C[C@@H]1c4c(cc(OC)c(OC)c4Oc4ccc(cc4)CC3=NCC2)CCN1C [Cissampareine],inhibitory activity against human carcinoma cells of the naso-pharynx,[2],significant and reproducible inhibitory activity
"CCOC(=O)C1(c2ccccc2)CCN(CCC(C#N)(c2ccccc2)c2ccccc2)CC1 [Diphenoxylate HCl, diphenoxylate HCl]",Total no of faecal matter,"[3]; counted over 4 h, six rats per group",16
same,% Reduction (Inhibition),[3]; vs control 1% CMC,75.38%
CNC(=C[N+](=O)[O-])NCCSCc1ccc(CN(C)C)o1 [Ranitidine],% Curative ratio,[4],82.20%
same,Ulcer index,[4],0.81 ± 0.01^b
same,% Protection,[5],77% and 77.9%
same,Ulcer incidence %,[5],20%
same,Ulcer incidence No,[5],2/10
same,Ulcer score Total lesion area,[5],1.06 ± 0.17^c mm^2
